ChEMBL document CHEMBL5579825, “Exploration of 1-(indolin-1-yl)-2-(thiazol-2-yl)ethan-1-one derivatives as novel anti-HBV agent with potential TLR7-agonistic effect” (Eur J Med Chem, 2024)
pIC50, pKd: −log10 of the molar value. Active and inactive are the calls of the source. No cut-off for these calls is given here.

Key:
Hepatitis B virus [1] = assay: Antiviral activity against HBV infected in human HepG2.2.15 cells assessed as inhibition of viral DNA replication at 4 uM pre-transfected cells with viral genome followed by compound treatment for 6 days with replacement of medium containing compound on every 2 days by RT-PCR analysis relative to control; assay type: functional; conditions: HepG2.2.15, 144 h, time 6 day
Hepatitis B virus [2] = assay: Antiviral activity against HBV infected in human HepG2.2.15 cells assessed as inhibition of viral DNA replication pre-transfected cells with viral genome followed by compound treatment for 6 days with replacement of medium containing compound on every 2 days by RT-PCR analysis; assay type: functional, organism-based
[3] = Selectivity index, ratio of CC50 for human HepG2.2.15 cells to IC50 for HBV infected in human HepG2.2.15 cells assessed as inhibition of viral DNA replication; assay type: toxicity, cell-based
[4] = Cytotoxicity against human HepG2.2.15 cells incubated for 72 hrs by CCK8 assay; assay type: toxicity, cell-based, HepG2 2.2.15
[5] = Inhibition of HBsAg secretion in human HepG2.2.15 cells treated for 6 days with replacement of medium containing compound on every 2 days by […]; assay type: functional, cell-based; conditions: HepG2 2.2.15
[6] = Selectivity index, ratio of CC50 for human HepG2.2.15 cells to IC50 for HBsAg secretion in human HepG2.2.15 cells; assay type: toxicity, cell-based; conditions: HepG2.2.15 cells, read-out: Ratio CC50/IC50
[7] = Selectivity index, ratio of CC50 for human HepG2.A64 cells to IC50 for HBV infected in human HepG2.A64 cells assessed as inhibition of viral DNA replication; assay type: toxicity, cell-based; conditions: read-out: Ratio CC50/IC50
Hepatitis B virus [8] = assay: Antiviral activity against HBV infected in human HepG2.A64 cells assessed as inhibition of viral DNA replication pre-transfected cells with viral genome followed by compound treatment for 3 days by RT-PCR analysis; assay type: functional, organism-based; conditions: HepG2.A64, 72 h
[9] = Cytotoxicity against human HepG2.A64 cells incubated for 72 hrs by CCK8 assay; assay type: toxicity, cell-based
Hepatitis B virus [10] = assay: Antiviral activity against HBV infected in LAM/ETV-resistant human HepG2.A64 cells assessed as inhibition of viral DNA replication at 4 uM pre-transfected cells with viral genome followed by compound treatment for 72 hrs by RT-PCR analysis relative to control; assay type: functional
Hepatitis B virus [11] = assay: Antiviral activity against HBV infected in human HepG2.2.15 cells assessed as inhibition of viral DNA replication at 4 uM pre-transfected cells with viral genome followed by compound treatment for 72 hrs by RT-PCR analysis relative to control; assay type: functional
HEK-293T = assay: Effect on NF-kappaB/Renilla luciferase expression in HEK293T cells at 0.4 to 10 uM incubated for 48 hrs by Dual-luciferase reporter gene assay; assay type: functional, cell-based; conditions: Homo sapiens, dose 0.4-10 µM
[12] = molecular target: T1, Toll-like receptor 7 (Homo sapiens) (UniProt Q9NYK1); assay: Agonist activity at human TLR7 expressed in HEK293T cells co-transfected with NF-kappaB/Renilla luciferase incubated for 48 hrs by Dual-luciferase reporter gene assay; assay type: cell-based; conditions: filed as agonist, dose 0.4-10 µM
T1 sequence (whole entry): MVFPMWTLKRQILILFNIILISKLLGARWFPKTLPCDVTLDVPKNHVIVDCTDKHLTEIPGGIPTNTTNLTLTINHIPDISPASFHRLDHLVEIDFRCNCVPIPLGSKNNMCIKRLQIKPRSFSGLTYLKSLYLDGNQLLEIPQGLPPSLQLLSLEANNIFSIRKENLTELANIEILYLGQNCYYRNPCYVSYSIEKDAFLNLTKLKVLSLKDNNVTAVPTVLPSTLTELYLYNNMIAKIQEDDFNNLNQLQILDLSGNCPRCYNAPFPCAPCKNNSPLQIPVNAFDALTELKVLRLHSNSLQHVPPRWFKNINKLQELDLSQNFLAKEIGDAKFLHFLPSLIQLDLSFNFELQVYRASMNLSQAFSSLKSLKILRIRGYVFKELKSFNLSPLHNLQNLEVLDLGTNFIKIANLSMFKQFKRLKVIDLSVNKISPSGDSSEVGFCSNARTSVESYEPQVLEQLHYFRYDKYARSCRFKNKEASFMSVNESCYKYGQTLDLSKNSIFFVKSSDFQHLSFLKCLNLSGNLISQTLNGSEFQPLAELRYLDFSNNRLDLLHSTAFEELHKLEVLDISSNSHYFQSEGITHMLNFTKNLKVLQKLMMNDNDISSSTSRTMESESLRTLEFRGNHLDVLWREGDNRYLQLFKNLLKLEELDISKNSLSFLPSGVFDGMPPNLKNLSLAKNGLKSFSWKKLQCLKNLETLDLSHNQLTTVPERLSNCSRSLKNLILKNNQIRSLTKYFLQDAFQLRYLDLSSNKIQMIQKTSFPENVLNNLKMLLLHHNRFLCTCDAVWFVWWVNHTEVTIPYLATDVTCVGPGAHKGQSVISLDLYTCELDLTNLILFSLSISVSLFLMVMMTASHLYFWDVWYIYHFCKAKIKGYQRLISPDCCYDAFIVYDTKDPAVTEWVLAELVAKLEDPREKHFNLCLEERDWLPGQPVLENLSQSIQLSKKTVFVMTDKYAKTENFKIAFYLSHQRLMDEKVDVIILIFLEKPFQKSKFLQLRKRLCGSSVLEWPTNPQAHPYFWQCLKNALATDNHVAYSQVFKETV

PBMC [13] = assay: Induction of IL-2 production in human PBMC cells incubated for 24 hrs by ELISA; assay type: functional, cell-based; conditions: dose 0.4-10 µM
PBMC [14] = assay: Induction of TNF-alpha production in human PBMC cells incubated for 24 hrs by ELISA; assay type: functional, cell-based; conditions: dose 0.4-10 µM
PBMC [15] = assay: Induction of IFN-alpha production in human PBMC cells incubated for 24 hrs by ELISA; assay type: functional, cell-based; conditions: dose 0.4-10 µM
Toll-like receptor 7 = molecular target: T2, Toll-like receptor 7 (Homo sapiens, UniProt Q9NYK1); assay: Binding affinity to recombinant human TLR7 assessed as dissociation constant by SPR analysis
T2 sequence (Q9NYK1 whole entry): T1 sequence (whole entry)

[16] = AUClast in Sprague-Dawley rat at 10 mg/kg, IG measured for 12 hrs by UPLC-MS/MS analysis; assay type: ADME, organism-based; conditions: in vivo, po
[17] = Cmax in Sprague-Dawley rat at 10 mg/kg, IG measured for 12 hrs by UPLC-MS/MS analysis; assay type: ADME, organism-based; conditions: in vivo, po
[18] = Tmax in Sprague-Dawley rat at 10 mg/kg, IG measured for 12 hrs by UPLC-MS/MS analysis; assay type: ADME, organism-based; conditions: in vivo, po
[19] = Half life in Sprague-Dawley rat at 10 mg/kg, IG measured for 12 hrs by UPLC-MS/MS analysis; assay type: ADME, organism-based; conditions: in vivo, po

Question: Which results are given for O=C(Cc1csc(COc2ccccc2F)n1)N1CCc2ccccc21?
Answer: inhibition at 4 µM (Hepatitis B virus [1]): 69.2%; pIC50 (Hepatitis B virus [2]): 6.89; Ratio CC50/IC50 [3]: > 384.62; selectivity ratio ([3]; HepG2.2.15 cells, read-out: Ratio CC50/IC50): > 384; CC50 at 72 h [4]: > 50 µM; pIC50 [5]: 4.59; selectivity ratio [6]: > 1.93; selectivity ratio [7]: > 55.6; pIC50 (Hepatitis B virus [8]): 6.44; CC50 at 72 h [9]: > 20 µM; inhibition at 4 µM (Hepatitis B virus [10]): 74.2%; inhibition at 4 µM (Hepatitis B virus [11]): 71.7%; Activity (HEK-293T): Active; Activity [12]: Dose-Dependent Effect; Activity (PBMC [13]): Dose-Dependent Effect; Activity (PBMC [14]): Dose-Dependent Effect; Activity (PBMC [15]): Dose-Dependent Effect; pKd (Toll-like receptor 7): 5.15; AUC(0-t) at 12 h [16]: 252 ng·h/mL; Cmax [17]: 66 ng/mL; Tmax [18]: 2 h; half-life [19]: 2 h
